The results in this text go back to ChEMBL document CHEMBL2311427, “Bioactive barrigenol type triterpenoids from the leaves of Xanthoceras sorbifolia Bunge” (Eur J Med Chem, 2013).

Holding throughout (format): functional, cell-based
The subject of one test is MCF7. The experiment in a line: Antitumor activity against human MCF7 cells assessed as growth inhibition measured after 48 hrs by MTT assay. The following applies: MCF7, 48 h.
The next test relates to HeLa. In words: Antitumor activity against human HeLa cells assessed as growth inhibition measured after 48 hrs by MTT assay.
For a further test, the system named is HepG2. The experiment in a line: Antitumor activity against human HepG2 cells assessed as growth inhibition measured after 48 hrs by MTT assay. The conditions noted are these: HepG2, 48 h. (In general: Tetrazolium assays rely on reduction of a dye to a coloured formazan, in cell work by metabolically active cells.)

Structures are written as SMILES.

For orientation: IC50 means the point on the concentration scale where inhibition reaches its midpoint. With `C[C@@H]1O[C@@H](O[C@H]2[C@H](OC[C@@]34CC[C@]5(C)C(=CC[C@@H]6[C@@]7(C)CC[C@H](O[C@@H]8O[C@H](CO[C@@H]9O[C@H](CO)[C@@H](O)[C@H](O)[C@H]9O)[C@@H](O)[C@H](O)[C@H]8O)C(C)(C)[C@@H]7CC[C@]65C)[C@@H]3CC(C)(C)[C@@H](O)[C@@H]4O)O[C@H](CO)[C@@H](O)[C@@H]2O)[C@H](O)[C@H](O)[C@H]1O`, the IC50 is 25.4 µM in the test on MCF7, 18.8 µM in the test on HeLa and 31.5 µM in the test on HepG2.

Turning to `C/C=C(/C)C(=O)O[C@@H]1[C@@H](O)[C@H](O[C@H]2CC[C@]3(C)[C@H]4CC=C5[C@@H]6CC(C)(C)[C@@H](O)[C@H](O)[C@]6(CO[C@@H]6O[C@H](CO[C@@H]7O[C@H](CO)[C@@H](O)[C@H](O)[C@H]7O)[C@@H](O)[C@H](O)[C@H]6O[C@@H]6O[C@@H](C)[C@H](O)[C@@H](O)[C@H]6O)CC[C@@]5(C)[C@]4(C)CC[C@H]3C2(C)C)O[C@H](CO[C@@H]2O[C@H](CO)[C@@H](O)[C@H](O)[C@H]2O)[C@H]1O`, the IC50 in the test with MCF7, with HeLa and with HepG2 was more than 100 µM in each case.

As for `C/C=C(/C)C(=O)O[C@H]1[C@H](OC(=O)/C(C)=C\C)[C@]2(CO)[C@H](O)[C@H](O)[C@]3(C)C(=CC[C@@H]4[C@@]5(C)CC[C@H](O[C@@H]6O[C@H](C(=O)OC)[C@@H](O)[C@H](O)[C@H]6O[C@@H]6O[C@H](CO)[C@@H](O)[C@H](O)[C@H]6O)C(C)(C)[C@@H]5CC[C@]43C)[C@@H]2CC1(C)C`, the IC50 is more than 100 µM with MCF7, 81.6 µM with HeLa and 43.7 µM in the test on HepG2.

With `C/C=C(/C)C(=O)O[C@H]1[C@H](OC(=O)/C(C)=C\C)[C@]2(CO)[C@H](O)[C@H](O)[C@]3(C)C(=CC[C@@H]4[C@@]5(C)CC[C@H](O[C@@H]6O[C@H](CO[C@@H]7O[C@H](CO)[C@@H](O)[C@H](O)[C@H]7O)[C@@H](O)[C@H](O)[C@H]6O[C@@H]6O[C@@H](CO)[C@H](O)[C@H]6O)C(C)(C)[C@@H]5CC[C@]43C)[C@@H]2CC1(C)C`, the results for the IC50 with MCF7, in the test on HeLa and with HepG2 were 9.62 µM, 7.56 µM and 9.21 µM, respectively.

As to `C/C=C(/C)C(=O)O[C@H]1[C@H](O[C@H]2CC[C@]3(C)[C@H]4CC=C5[C@@H]6CC(C)(C)[C@@H](O)[C@H](O)[C@]6(CO[C@@H]6O[C@H](CO[C@@H]7O[C@H](CO)[C@@H](O)[C@H](O)[C@H]7O)[C@@H](O)[C@H](O)[C@H]6O[C@@H]6O[C@@H](C)[C@H](O)[C@@H](O)[C@H]6O)CC[C@@]5(C)[C@]4(C)CC[C@H]3C2(C)C)O[C@H](CO[C@@H]2O[C@H](CO)[C@@H](O)[C@H](O)[C@H]2O)[C@@H](O)[C@@H]1O`, the IC50 with MCF7, in the test on HeLa and in the test on HepG2 was more than 100 µM each time.

In the case of `COc1cc([C@@H]2c3cc4c(cc3[C@@H](O[C@@H]3O[C@@H]5CO[C@@H](C)O[C@H]5[C@H](O)[C@H]3O)[C@H]3COC(=O)[C@H]23)OCO4)cc(OC)c1O` [ETOPOSIDE], the IC50 in the test on MCF7 amounted to 59.8 µM; in the test on HeLa, 8.32 µM; in the test with HepG2, 9.14 µM.

Turning to `O=c1[nH]cc(F)c(=O)[nH]1` [FLUOROURACIL], the values for the 50% inhibitory concentration (IC50) with MCF7, in the test with HeLa and in the test with HepG2 were more than 100 µM, 14.8 µM and more than 100 µM, respectively.

For the compound `CC(=O)O[C@H]1C(=O)[C@@]2(C)[C@H]([C@H](OC(=O)c3ccccc3)[C@]3(O)C[C@H](OC(=O)[C@H](O)[C@@H](NC(=O)c4ccccc4)c4ccccc4)C(C)=C1C3(C)C)[C@]1(OC(C)=O)CO[C@@H]1C[C@@H]2O` [PACLITAXEL], the IC50 in the test on MCF7 is 77.2 µM; in the test with HepG2, 61.8 µM.

In the case of `Oc1ccc(/C=C/c2cc(O)cc(O)c2)cc1` [RESVERATROL], the values for the IC50 with MCF7, with HeLa and in the test on HepG2 were more than 100 µM, 58.9 µM and more than 100 µM, respectively.

As for `C[C@@H]1O[C@@H](O[C@H]2[C@H](OC[C@@]34CC[C@]5(C)C(=CC[C@@H]6[C@@]7(C)CC[C@H](O[C@@H]8O[C@H](CO[C@@H]9O[C@H](CO)[C@@H](O)[C@H](O)[C@H]9O)[C@@H](O)[C@H](O)[C@H]8O)C(C)(C)[C@@H]7CC[C@]65C)[C@@H]3CC(C)(C)[C@@H](O)[C@@H]4O)O[C@H](CO[C@@H]3O[C@H](CO)[C@@H](O)[C@H](O)[C@H]3O)[C@@H](O)[C@@H]2O)[C@H](O)[C@H](O)[C@H]1O` [XANIFOLIA O54], the IC50 with MCF7 came to 7.29 µM; in the test on HeLa, 3.98 µM; in the test with HepG2 it was 7.25 µM.
